# Measurements: patent US9546152B2 (MERCK SHARP & DOHME CORP., priority 2012, dated 2017)
# Like-named read-outs stand apart in the source and are kept apart here.
# Experiments:
# [1] = biological target: rat orexin-1 receptor (Rattus norvegicus (Rat), UniProt P56718); assay: FLIPR Ca2+ Flux Assay, orexin-1 receptor; assay type: cell-based; conditions: read-out: hOX1R FLIPR IC50
# Outline: (§1)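 Using CHO lines carrying either rat orexin-1 or human orexin-2 receptor, compounds were tested as antagonists of 70 pM Ala-6,12 orexin-A-evoked calcium rises. Fluo-4 signal was read on a FLIPR over 5 min after a 5 min compound preincubation.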
# [2] = biological target: T1, human orexin-2 receptor (Homo sapiens (Human), UniProt O43614); assay: radioligand binding assay, orexin-2 receptor; conditions: read-out: hOX2R BIND hKi
# [3] = biological target: T1, human orexin-2 receptor; assay: FLIPR Ca2+ Flux Assay, orexin-2 receptor; assay type: cell-based; conditions: read-out: hOX2R FLIPR IC50
# Outline: as §1
# [4] = biological target: orexin-1 receptor (hOX1R) (Rattus norvegicus, UniProt P56718); assay: radioligand binding assay, orexin-1 receptor; conditions: membranes prepared from CHO cells expressing the OX1 receptor; read-out: hOX1R BIND hKi
# Protocol: In a typical experiment the OX1 and OX2 receptor antagonistic activity of the compounds of the present invention was determined in accordance with the following experimental method. For intracellular calcium measurements, Chinese hamster ovary (CHO) cells expressing the rat orexin-1 receptor or the human orexin-2 receptor, are grown in Iscove's modified DMEM containing 2 mM L-glutamine, […], 1% hypoxanthine-thymidine supplement, 100 U/ml penicillin, 100 μg/ml streptomycin and 10% heat-inactivated fetal calf serum (FCS). The cells are seeded at 20,000 cells/well into Becton-Dickinson black 384-well clear bottom sterile plates coated with poly-D-lysine. […] Within the Fluorescent Imaging Plate Reader (FLIPR, Molecular Devices), test compounds are added to the plate in a volume of 25 μl, incubated for 5 min and finally 25 μl of agonist is added. Fluorescence is measured for each well at 1 second intervals for 5 minutes and the height of each fluorescence peak is compared to the height of the fluorescence peak induced by 70 pM Ala-6,12 orexin-A with buffer in place of antagonist. […] Alternatively, compound potency can be assessed by a radioligand binding assay (described in Bergman et. al. Bioorg. Med. Chem. Lett. 2008, 18, 1425-1430) in which the inhibition constant (Ki) is determined in membranes prepared from CHO cells expressing either the OX1 or OX2 receptor. […]
# [5] = CHO cells expressing the rat orexin-1 receptor, agonist 70 pM Ala-6,12 human orexin-A
# [6] = membranes prepared from CHO cells expressing the OX2 receptor
# [7] = CHO cells expressing the human orexin-2 receptor, agonist 70 pM Ala-6,12 human orexin-A
# Chain of rat orexin-1 receptor (P56718 whole entry): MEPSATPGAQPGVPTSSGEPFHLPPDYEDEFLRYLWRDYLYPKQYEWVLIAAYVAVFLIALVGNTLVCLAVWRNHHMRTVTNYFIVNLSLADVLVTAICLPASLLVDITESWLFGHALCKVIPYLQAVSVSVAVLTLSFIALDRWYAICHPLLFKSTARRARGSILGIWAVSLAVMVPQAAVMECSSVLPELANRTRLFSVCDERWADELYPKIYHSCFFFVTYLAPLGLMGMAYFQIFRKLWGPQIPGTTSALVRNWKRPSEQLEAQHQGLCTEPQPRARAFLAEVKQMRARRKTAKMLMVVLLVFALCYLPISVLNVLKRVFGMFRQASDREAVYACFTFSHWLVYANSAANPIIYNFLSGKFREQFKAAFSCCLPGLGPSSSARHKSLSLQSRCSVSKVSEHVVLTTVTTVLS
# T1 sequence (O43614 whole entry): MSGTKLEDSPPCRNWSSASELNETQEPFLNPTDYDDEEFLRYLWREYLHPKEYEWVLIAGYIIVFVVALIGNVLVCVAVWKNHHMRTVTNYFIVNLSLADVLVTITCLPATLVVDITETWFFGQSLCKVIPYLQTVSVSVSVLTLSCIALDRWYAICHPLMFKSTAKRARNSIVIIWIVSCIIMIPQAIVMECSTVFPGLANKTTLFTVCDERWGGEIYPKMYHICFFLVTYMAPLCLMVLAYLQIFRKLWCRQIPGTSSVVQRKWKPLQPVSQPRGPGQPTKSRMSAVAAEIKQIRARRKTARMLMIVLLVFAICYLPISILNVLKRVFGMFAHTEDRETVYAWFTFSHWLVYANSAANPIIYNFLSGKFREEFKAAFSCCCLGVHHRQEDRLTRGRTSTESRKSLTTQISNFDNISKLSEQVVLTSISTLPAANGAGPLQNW
# Chain of orexin-1 receptor (hOX1R) (P56718 whole entry, looked up): as the sequence (P56718 whole entry) above
Compound,"IC50 [1, 5] [nM]","Ki [2, 6] [nM]","IC50 [3, 7] [nM]",IC50 [1] [nM],Ki [2] [nM],IC50 [3] [nM],Ki [4] [nM]
"Cc1c(C#N)ccnc1O[C@@H]1CC[C@@H](C)N(C(=O)c2ccc(Br)nc2-n2nccn2)C1 [Example 89, 2-{[(3R,6R)-1-{[6-Bromo-2-(2H-1,2,3-triazol-2-yl)pyridin-3-yl]carbonyl}-6-methylpiperidin-3-yl]oxy}-3-methylpyridine-4-carbonitrile]",> 10000,5.1,29,–,–,–,–
"C=Cc1ccc(C(=O)N2C[C@H](Oc3nccc(C#N)c3C)CC[C@H]2C)c(-n2nccn2)n1 [Example 90, 2-{[(3R,6R)-1-{[6-ethenyl-2-(2H-1,2,3-triazol-2-yl)pyridin-3-yl]carbonyl}-6-methylpiperidin-3-yl]oxy}-3-methylpyridine-4-carbonitrile]",> 10000,12.9,88,–,–,–,–
"C[C@@H]1CC[C@@H](Oc2nccc(C#N)c2Cl)CN1C(=O)c1ccccc1-n1nccn1 [Example 91, 3-Chloro-2-{[(3R,6R)-6-methyl-1-{[2-(2H-1,2,3-triazol-2-yl)phenyl]carbonyl}piperidin-3-yl]oxy}pyridine-4-carbonitrile]",1600,0.8,8,–,–,–,–
"C[C@@H]1CC[C@@H](Oc2nccc(C#N)c2C#N)CN1C(=O)c1ccccc1-n1nccn1 [Example 94, 2-{[(3R,6R)-6-methyl-1-{[2-(2H-1,2,3-triazol-2-yl)phenyl]carbonyl}piperidin-3-yl]oxy}pyridine-3,4-dicarbonitrile]",> 10000,4.4,40,–,–,–,–
"CSc1c(C#N)ccnc1O[C@@H]1CC[C@@H](C)N(C(=O)c2ccccc2-n2nccn2)C1 [Example 95, 3-(Methylsulfanyl)-2-{[(3R,6R)-6-methyl-1-{[2-(2H-1,2,3-triazol-2-yl)phenyl]carbonyl}piperidin-3-yl]oxy}pyridine-4-carbonitrile]",306,0.1,6,–,–,–,–
"COc1c(C#N)ccnc1O[C@@H]1CC[C@@H](C)N(C(=O)c2ccccc2-n2nccn2)C1 [Example 96, 3-Methoxy-2-{[(3R,6R)-6-methyl-1-{[2-(2H-1,2,3-triazol-2-yl)phenyl]carbonyl}piperidin-3-yl]oxy}pyridine-4-carbonitrile]",1260,0.3,9,–,–,–,–
"COc1c(C#N)ccnc1O[C@@H]1CC[C@@H](C)N(C(=O)c2cccc(F)c2-n2nccn2)C1 [Example 97, 2-{[(3R,6R)-1-{[3-fluoro-2-(2H-1,2,3-triazol-2-yl)phenyl]carbonyl}-6-methylpiperidin-3-yl]oxy}-3-methoxypyridine-4-carbonitrile]",1100,0.3,19,–,–,–,–
"COc1c(C#N)ccnc1O[C@@H]1CC[C@@H](C)N(C(=O)c2cc(F)ccc2-n2nccn2)C1 [Example 99, 2-{[(3R,6R)-1-{[5-fluoro-2-(2H-1,2,3-triazol-2-yl)phenyl]carbonyl}-6-methylpiperidin-3-yl]oxy}-3-methoxypyridine-4-carbonitrile]",2430,0.4,15,–,–,–,–
"COc1c(C#N)ccnc1O[C@@H]1CC[C@@H](C)N(C(=O)c2c(F)cccc2-n2nccn2)C1 [Example 100, 2-{[(3R,6R)-1-{[2-fluoro-6-(2H-1,2,3-triazol-2-yl)phenyl]carbonyl}-6-methylpiperidin-3-yl]oxy}-3-methoxypyridine-4-carbonitrile]",1440,0.3,25,–,–,–,–
"COc1c(C#N)ccnc1O[C@@H]1CC[C@@H](C)N(C(=O)c2cccc(C)c2-n2nccn2)C1 [Example 101, 3-methoxy-2-{[(3R,6R)-6-methyl-1-{[3-methyl-2-(2H-1,2,3-triazol-2-yl)phenyl]carbonyl}piperidin-3-yl]oxy}pyridine-4-carbonitrile]",957,0.3,21,–,–,–,–
"COc1c(C#N)ccnc1O[C@@H]1CC[C@@H](C)N(C(=O)c2ccc(C)cc2-n2nccn2)C1 [Example 102, 3-methoxy-2-{[(3R,6R)-6-methyl-1-{[4-methyl-2-(2H-1,2,3-triazol-2-yl)phenyl]carbonyl}piperidin-3-yl]oxy}pyridine-4-carbonitrile]",3550,0.4,21,–,–,–,–
"COc1c(C#N)ccnc1O[C@@H]1CC[C@@H](C)N(C(=O)c2cc(C)ccc2-n2nccn2)C1 [Example 103, 3-methoxy-2-{[(3R,6R)-6-methyl-1-{[5-methyl-2-(2H-1,2,3-triazol-2-yl)phenyl]carbonyl}piperidin-3-yl]oxy}pyridine-4-carbonitrile]",1010,0.4,24,–,–,–,–
"COc1ccc(C(=O)N2C[C@H](Oc3nccc(C#N)c3OC)CC[C@H]2C)c(-n2nccn2)n1 [Example 104, 3-methoxy-2-{[(3R,6R)-1-{[6-methoxy-2-(2H-1,2,3-triazol-2-yl)pyridin-3-yl]carbonyl}-6-methylpiperidin-3-yl]oxy}pyridine-4-carbonitrile]",> 10000,2,29,–,–,–,–
"COc1c(C#N)ccnc1O[C@@H]1CC[C@@H](C)N(C(=O)c2ccccc2C2CCC2)C1 [Example 105, 2-({(3R,6R)-1-[(2-cyclobutylphenyl)carbonyl]-6-methylpiperidin-3-yl}oxy)-3-methoxypyridine-4-carbonitrile]",3500,0.2,36,–,–,–,–
"COc1c(C#N)ccnc1O[C@@H]1CC[C@@H](C)N(C(=O)c2ccccc2-c2ncccn2)C1 [Example 107, 3-methoxy-2-({(3R,6R)-6-methyl-1-[(2-pyrimidin-2-ylphenyl)carbonyl]piperidin-3-yl}oxy)pyridine-4-carbonitrile]",2750,0.4,33,–,–,–,–
COc1c(C#N)ccnc1O[C@@H]1CC[C@@H](C)N(C(=O)c2cccc(F)c2-c2ncccn2)C1 [Example 109],–,–,–,2850,1.1,26,482
"COc1c(C#N)ccnc1O[C@@H]1CC[C@@H](C)N(C(=O)c2ccc(F)cc2-c2ncccn2)C1 [Example 110, 2-({(3R,6R)-1-[(4-fluoro-2-pyrimidin-2-ylphenyl)carbonyl]-6-methylpiperidin-3-yl}oxy)-3-methoxypyridine-4-carbonitrile]",1240,0.6,39,–,–,–,–
"COc1c(C#N)ccnc1O[C@@H]1CC[C@@H](C)N(C(=O)c2cc(F)ccc2-c2ncccn2)C1 [Example 111, 2-({(3R,6R)-1-[(5-fluoro-2-pyrimidin-2-ylphenyl)carbonyl]-6-methylpiperidin-3-yl}oxy)-3-methoxypyridine-4-carbonitrile]",945,0.3,18,–,–,–,–
"COc1c(C#N)ccnc1O[C@@H]1CC[C@@H](C)N(C(=O)c2ccccc2-n2ncnn2)C1 [Example 115, 3-Methoxy-2-{[(3R,6R)-6-methyl-1-{[2-(2H-tetrazol-2-yl)phenyl]carbonyl}piperidin-3-yl]oxy}pyridine-4-carbonitrile]",1650,1.4,6,–,–,–,–
